Experimental findings from patent US12528826B2, “[1,4]oxazepino[2,3-c]quinolinone derivatives as BCL6 inhibitors” (Cancer Research Technology Limited, priority 2019, dated 2026) are described below.

This assay deals with T1, Trx-6×His-BCL6 (human BCL6 BTB domain covering amino-acid sequence 5-129) (Homo sapiens, UniProt P41182).
T1 construct: made in house
Put plainly: HTRF assay (BCL6 / BCOR peptide). To be noted: 1 nM Trx-6×His-BCL6, 300 nM BCOR-AF633 peptide, 2 hours incubation at room temperature; read-out: HTRF avg pIC50 (converted). In kind it is binding. As to the method: After 2 hours incubation at room temperature the plate was read on a Pherastar FSX (BMG Labtech) plate reader equipped with 337 nm laser excitation filter, a first emission filter at 620 nm and a second emission filter at 665 nm. The % inhibition at each concentration was calculated by normalising FRET ratio to the appropriate high (DMSO with all reagents) and low (DMSO without BCL6) controls.
(In general: In TR-FRET formats the signal depends on donor and acceptor labels being close together.)

Molecules are shown by their SMILES.

In the case of `Cn1c(=O)c2c(c3cc(Nc4nc(N5CC[C@@H]5CO)ncc4Cl)ccc31)N[C@@H](C1CC1)C(F)(F)CO2` [Example 12x33b, (S)-10-((5-chloro-2-((R)-2-(hydroxymethyl)azetidin-1-yl)pyrimidin-4-yl)amino)-2-cyclopropyl-3,3-difluoro-7-methyl-1,2,3,4-tetrahydro-[1,4]oxazepino[2,3-c]quinolin-6(7H)-one], the IC50 was 7.76 nM.
On to `Cn1c(=O)c2c(c3cc(Nc4nc(N5CC(CF)C5)ncc4Cl)ccc31)N[C@@H](C1CC1)C(F)(F)CO2` [Example 12x35, (S)-10-((5-chloro-2-(3-(fluoromethyl)azetidin-1-yl)pyrimidin-4-yl)amino)-2-cyclopropyl-3,3-difluoro-7-methyl-1,2,3,4-tetrahydro-[1,4]oxazepino[2,3-c]quinolin-6(7H)-one], for which the IC50 was 5.37 nM.
For `Cn1c(=O)c2c(c3cc(Nc4nc(N5CCC(C#N)CC5)ncc4Cl)ccc31)N[C@@H](C1CC1)C(F)(F)CO2` [Example 12x38, (S)-1-(5-chloro-4-((2-cyclopropyl-3,3-difluoro-7-methyl-6-oxo-1,2,3,4,6,7-hexahydro-[1,4]oxazepino[2,3-c]quinolin-10-yl)amino)pyrimidin-2-yl)piperidine-4-carbonitrile] the value was 3.72 nM; for `CN(C)C(=O)C1CC(F)CN(c2ncc(Cl)c(Nc3ccc4c(c3)c3c(c(=O)n4C)OCC(F)(F)[C@H](C4CC4)N3)n2)C1` (stereo partly drawn) [Example 12x39, 1-(5-chloro-4-(((S)-2-cyclopropyl-3,3-difluoro-7-methyl-6-oxo-1,2,3,4,6,7-hexahydro-[1,4]oxazepino[2,3-c]quinolin-10-yl)amino)pyrimidin-2-yl)-5-fluoro-N,N-dimethylpiperidine-3-carboxamide], 2.51 nM; for `Cn1c(=O)c2c(c3cc(Nc4nc(N5CCCC(F)C5)ncc4Cl)ccc31)N[C@@H](C1CC1)C(F)(F)CO2` (stereo partly drawn) [Example 12x40, (2S)-10-((5-chloro-2-(3-fluoropiperidin-1-yl)pyrimidin-4-yl)amino)-2-cyclopropyl-3,3-difluoro-7-methyl-1,2,3,4-tetrahydro-[1,4]oxazepino[2,3-c]quinolin-6(7H)-one], 10.7 nM.
Turning to `Cn1c(=O)c2c(c3cc(Nc4nc(N5CCC(F)CC5)ncc4Cl)ccc31)N[C@@H](C1CC1)C(F)(F)CO2` [Example 12x42, (S)-10-((5-chloro-2-(4-fluoropiperidin-1-yl)pyrimidin-4-yl)amino)-2-cyclopropyl-3,3-difluoro-7-methyl-1,2,3,4-tetrahydro-[1,4]oxazepino[2,3-c]quinolin-6(7H)-one], the IC50 is 6.17 nM.
In the case of `Cn1c(=O)c2c(c3cc(Nc4nc(N5CCC[C@H]5CO)ncc4Cl)ccc31)N[C@@H](C1CC1)C(F)(F)CO2` [Example 12x44, (S)-10-((5-chloro-2-((S)-2-(hydroxymethyl)pyrrolidin-1-yl)pyrimidin-4-yl)amino)-2-cyclopropyl-3,3-difluoro-7-methyl-1,2,3,4-tetrahydro-[1,4]oxazepino[2,3-c]quinolin-6(7H)-one], the IC50 was 5.01 nM.
For `COC[C@@H]1CCCN1c1ncc(Cl)c(Nc2ccc3c(c2)c2c(c(=O)n3C)OCC(F)(F)[C@H](C3CC3)N2)n1` [Example 12x45a, (S)-10-((5-chloro-2-((S)-2-(methoxymethyl)pyrrolidin-1-yl)pyrimidin-4-yl)amino)-2-cyclopropyl-3,3-difluoro-7-methyl-1,2,3,4-tetrahydro-[1,4]oxazepino[2,3-c]quinolin-6(7H)-one] the value was 11.2 nM; for `COC[C@H]1CCCN1c1ncc(Cl)c(Nc2ccc3c(c2)c2c(c(=O)n3C)OCC(F)(F)[C@H](C3CC3)N2)n1` [Example 12x45b, (S)-10-((5-chloro-2-((R)-2-(methoxymethyl)pyrrolidin-1-yl)pyrimidin-4-yl)amino)-2-cyclopropyl-3,3-difluoro-7-methyl-1,2,3,4-tetrahydro-[1,4]oxazepino[2,3-c]quinolin-6(7H)-one], 4.79 nM; for `Cn1c(=O)c2c(c3cc(Nc4nc(N5CC(F)(F)C[C@H]5CO)ncc4Cl)ccc31)N[C@@H](C1CC1)C(F)(F)CO2` [Example 12x47, (S)-10-((5-chloro-2-((S)-4,4-difluoro-2-(hydroxymethyl)pyrrolidin-1-yl)pyrimidin-4-yl)amino)-2-cyclopropyl-3,3-difluoro-7-methyl-1,2,3,4-tetrahydro-[1,4]oxazepino[2,3-c]quinolin-6(7H)-one], 8.32 nM.
For `Cn1c(=O)c2c(c3cc(Nc4nc(N5C[C@@H](F)C[C@H]5CO)ncc4Cl)ccc31)N[C@@H](C1CC1)C(F)(F)CO2` [Example 12x48a, (S)-10-((5-chloro-2-((2S,4S)-4-fluoro-2-(hydroxymethyl)pyrrolidin-1-yl)pyrimidin-4-yl)amino)-2-cyclopropyl-3,3-difluoro-7-methyl-1,2,3,4-tetrahydro-[1,4]oxazepino[2,3-c]quinolin-6(7H)-one] the value was 4.27 nM.
As to `Cn1c(=O)c2c(c3cc(Nc4nc(N5C[C@H](F)C[C@H]5CO)ncc4Cl)ccc31)N[C@@H](C1CC1)C(F)(F)CO2` [Example 12x48b, (S)-10-((5-chloro-2-((2S,4R)-4-fluoro-2-(hydroxymethyl)pyrrolidin-1-yl)pyrimidin-4-yl)amino)-2-cyclopropyl-3,3-difluoro-7-methyl-1,2,3,4-tetrahydro-[1,4]oxazepino[2,3-c]quinolin-6(7H)-one], the IC50 was 18.6 nM.
Consider `CC1CCN(c2ncc(Cl)c(Nc3ccc4c(c3)c3c(c(=O)n4C)OCC(F)(F)[C@H](C4CC4)N3)n2)C1CO` (stereo partly drawn) [Example 12x49, (2S)-10-((5-chloro-2-(2-(hydroxymethyl)-3-methylpyrrolidin-1-yl)pyrimidin-4-yl)amino)-2-cyclopropyl-3,3-difluoro-7-methyl-1,2,3,4-tetrahydro-[1,4]oxazepino[2,3-c]quinolin-6(7H)-one], for which the IC50 is 6.31 nM.
`C[C@H]1C[C@@H](O)CN(c2cc(Nc3ccc4c(c3)c3c(c(=O)n4C)OCC(F)(F)[C@H](C4CC4)N3)c(Cl)cn2)C1` [Example 13a, (S)-10-((5-chloro-2-((3R,5S)-3-hydroxy-5-methylpiperidin-1-yl)pyridin-4-yl)amino)-2-cyclopropyl-3,3-difluoro-7-methyl-1,2,3,4-tetrahydro-[1,4]oxazepino[2,3-c]quinolin-6(7H)-one]: the IC50 is 6.76 nM.
For `Cn1c(=O)c2c(c3cc(Nc4cc(N5CCC(F)(F)CC5)ncc4Cl)ccc31)N[C@@H](C1CC1)C(F)(F)CO2` [Example 13b] the value was 30.9 nM; for `CN(C)c1cc(Nc2ccc3c(c2)c2c(c(=O)n3C)OCC(F)(F)[C@H](C3CC3)N2)c(Cl)cn1` [Example 13c12, (S)-2-cyclopropyl-10-((2-(dimethylamino)-5-chloropyridin-4-yl)amino)-3,3-difluoro-7-methyl-1,2,3,4-tetrahydro-[1,4]oxazepino[2,3-c]quinolin-6(7H)-one], 19.5 nM.
For `Cn1c(=O)c2c(c3cc(Nc4cc(N5CCC(F)(F)CC5)ncc4F)ccc31)N[C@@H](C1CC1)C(F)(F)CO2` [Example 13f04, (S)-2-cyclopropyl-10-((2-(4,4-difluoropiperidin-1-yl)-5-fluoropyridin-4-yl)amino)-3,3-difluoro-7-methyl-1,2,3,4-tetrahydro-[1,4]oxazepino[2,3-c]quinolin-6(7H)-one] the value was 58.9 nM.
